The results in this text go back to ChEMBL document CHEMBL1201862, “PubChem BioAssay data set” (2004).

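Briefly, cells in 96-well plates were exposed to five compound concentrations for 48 h, and endpoints were estimated by linear interpolation. Abbreviation: GI50, concentration required for 50% inhibition of growth.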 Calls of active or inactive are those of the source. Rule as the data show it: active = GI50 up to about 1.1 µM and inactive = higher.

What all share (assay): inhibition of tumour cell growth, NCI panel, 48 h
The subject of experiment [1] is SR.
The subject of experiment [2] is IGROV-1.
Experiment [3] concerns HCC 2998.
The test system of experiment [4] is DMS-114.
Experiment [5] has as its system EKVX.
Experiment [6] concerns K562.
Experiment [7] concerns COLO 205.
Experiment [8] deals with SK-MEL-2.
Experiment [9] deals with HCT-116.
Experiment [10] relates to HOP-92.
Experiment [11] relates to TK-10.
The test system of experiment [12] is NCI-H460.
For experiment [13], the system named is SNB-75.
The subject of experiment [14] is HL-60.
In experiment [15] the test system is MDA-N.
The subject of experiment [16] is PC-3.
Experiment [17] deals with Hs-578T.
In experiment [18] the test system is DU-145.
Experiment [19] relates to NCI/ADR-RES.
Experiment [20] has as its system MDA-MB-231.

For `COC(=O)/C(=N\NC(=S)NN)C(C(=O)C(=O)Nc1ccccc1C(N)=O)c1nc2ccccc2nc1O` (centres undefined), the GI50 in experiment [1], in experiment [2], in experiment [3], in [4], in [5] and in [6] was > 100 µM (inactive) in each case. In addition, the GI50 in experiment [7] is > 100 µM (inactive); in experiment [8], > 100 µM (inactive); in experiment [9], > 100 µM (inactive); in experiment [10] it was 43.5 µM (inactive); in [11], > 100 µM (inactive).

Turning to `Cc1ccc(C(O)(c2ccc(C)cc2)c2ccccn2)cc1`, the GI50 is > 100 µM (inactive) in experiment [12]; > 100 µM (inactive) in [2]; > 100 µM (inactive) in experiment [3]; > 100 µM (inactive) in experiment [4]; 30.9 µM (inactive) in experiment [13]; 86.7 µM (inactive) in experiment [5]. Also, the GI50 was 71.6 µM (inactive) in [6]; > 100 µM (inactive) in experiment [7]; > 100 µM (inactive) in experiment [8]; 68.9 µM (inactive) in [9]; 62.1 µM (inactive) in experiment [11].

`CCCCNC1=C(C(=O)OCC)C(=O)CO1`: the GI50 in experiment [12] is > 100 µM (inactive); in experiment [2] it was > 100 µM (inactive); in [3], > 100 µM (inactive); in [4], > 100 µM (inactive); in [13], 80.2 µM (inactive); in [5], > 100 µM (inactive). The GI50 in experiment [6], in experiment [7], in experiment [8], in experiment [14] and in experiment [11] was > 100 µM (inactive) throughout.

For the compound `COc1ccc2[nH]cc(CCNC(C)=O)c2c1` [MELATONIN], the GI50 in experiment [12] is > 100 µM (inactive); in experiment [2], > 100 µM (inactive); in [4], > 100 µM (inactive); in experiment [13], > 100 µM (inactive); in experiment [5], > 100 µM (inactive); in [6], 39.1 µM (inactive). The GI50 in [7] was 29.9 µM (inactive); in experiment [8], > 100 µM (inactive); in experiment [14], > 100 µM (inactive); in experiment [9] it was > 100 µM (inactive); in [10], > 100 µM (inactive); in [11], > 100 µM (inactive).

Take `COc1cccc(/C=C(/C(=O)O)c2cc(OC)c(OC)c(OC)c2)c1`: the GI50 in experiment [12] is > 100 µM (inactive); in [2] it was > 100 µM (inactive); in experiment [4], > 100 µM (inactive); in experiment [13], > 100 µM (inactive); in experiment [5], > 100 µM (inactive); in experiment [6], 51.8 µM (inactive). Further, the GI50 in experiment [7] was > 100 µM (inactive); in experiment [14], 66.5 µM (inactive); in [9], > 100 µM (inactive); in experiment [10], 92.3 µM (inactive); in experiment [11] it was > 100 µM (inactive).

Regarding `CN(C)C(=S)/N=c1\ssc(=S)n1-c1ccccc1`, the GI50 is 16.1 µM (inactive) in experiment [12]; 17 µM (inactive) in [2]; 19.6 µM (inactive) in experiment [3]; 15.9 µM (inactive) in experiment [4]; 17.4 µM (inactive) in experiment [13]; 23.4 µM (inactive) in experiment [5]. Further, the GI50 in [6] is 17.1 µM (inactive); in experiment [8], 8.75 µM (inactive); in experiment [14], 18.1 µM (inactive); in experiment [9], 13.7 µM (inactive); in experiment [10], 20.4 µM (inactive); in experiment [11] it was 16.9 µM (inactive).

On to `CC(=O)OC1C(CCl)OC(N=[N+]=[N-])C(OC(C)=O)C1OC(C)=O` (centres undefined), for which the GI50 in experiment [12], in experiment [2], in [3], in [4], in [13] and in [5] was > 100 µM (inactive) each time. Also, the GI50 in [6], in experiment [7], in experiment [8], in [14], in experiment [9] and in [11] was > 100 µM (inactive) in each case.

Turning to `COc1cccc(-c2cc(O)c3ccccc3n2)c1`, the GI50 was 4.59 µM (inactive) in [12]; 5.5 µM (inactive) in experiment [1]; 17.2 µM (inactive) in experiment [2]; 6.58 µM (inactive) in experiment [3]; 4.69 µM (inactive) in experiment [4]; 4.98 µM (inactive) in experiment [13]. Also, the GI50 in experiment [5] is 52.2 µM (inactive); in [6], 4.72 µM (inactive); in experiment [7], 4.93 µM (inactive); in [8], 24.9 µM (inactive); in experiment [14], 2.98 µM (inactive); in [9] it was 5.53 µM (inactive). Moreover, in experiment [11], the GI50 was > 100 µM (inactive).

As to `COC(=O)C1=C(C(=O)OC)C2(C)OC1C(=O)C21CC1` (centres undefined), the GI50 in experiment [12] is 24.9 µM (inactive); in [1] it was 19 µM (inactive); in experiment [2], 23.2 µM (inactive); in experiment [3], 25.5 µM (inactive); in [4] it was 20.4 µM (inactive); in experiment [13] it was 28.9 µM (inactive). Moreover, the GI50 in experiment [5] is 39.7 µM (inactive); in experiment [6], 19.8 µM (inactive); in experiment [7], 24.1 µM (inactive); in [8], > 100 µM (inactive); in [14], 16.7 µM (inactive); in experiment [9], 19.8 µM (inactive). The GI50 in experiment [11] was > 10 µM (inactive).

For `O=C1C2C3SC(c4cc5ccccc5cc43)C2C(=O)N1c1ccccc1` (centres undefined), the GI50 in experiment [2] was > 100 µM (inactive); in experiment [3] it was > 100 µM (inactive); in experiment [4] it was > 100 µM (inactive); in experiment [13] it was 19.8 µM (inactive); in experiment [5], > 100 µM (inactive); in experiment [6], > 100 µM (inactive). For the same compound, the GI50 is > 100 µM (inactive) in experiment [7]; 77.1 µM (inactive) in [8]; > 100 µM (inactive) in experiment [14]; > 100 µM (inactive) in experiment [9]; 30.1 µM (inactive) in experiment [10]; > 100 µM (inactive) in [11].

For `CCOC(=O)C(NO)C(Sc1ccccc1)c1ccc(OC)cc1` (centres undefined), the GI50 was 44.4 µM (inactive) in experiment [12]; > 100 µM (inactive) in experiment [1]; > 100 µM (inactive) in experiment [2]; > 100 µM (inactive) in [3]; 64.7 µM (inactive) in experiment [4]; 55.5 µM (inactive) in experiment [13]. The GI50 was > 100 µM (inactive) in experiment [5]; 35.3 µM (inactive) in experiment [7]; > 100 µM (inactive) in [8]; 34.9 µM (inactive) in experiment [9]; > 100 µM (inactive) in [10]; > 100 µM (inactive) in experiment [11].

As for `O=C1CCN2C(=Nc3cccc4cccc2c34)N1`, the GI50 is > 100 µM (inactive) in experiment [12]; > 100 µM (inactive) in experiment [1]; > 100 µM (inactive) in [2]; > 100 µM (inactive) in experiment [3]; > 100 µM (inactive) in experiment [4]; 76.9 µM (inactive) in experiment [13]. Further, the GI50 in experiment [5] was 0.551 µM (active); in [6] it was > 100 µM (inactive); in experiment [7] it was > 100 µM (inactive); in [14] it was > 100 µM (inactive); in [9] it was > 100 µM (inactive); in experiment [11], > 100 µM (inactive).

On to `COc1cc(N)c2[nH]c3c(C)ccc(C)c3c2c1`, for which the GI50 in experiment [12], in [1], in experiment [3], in experiment [4], in experiment [13] and in experiment [5] was > 100 µM (inactive) each time. For the same compound, the GI50 in experiment [6], in experiment [7], in [8], in [14], in [9] and in [11] was > 100 µM (inactive) throughout.

On to `COc1ccc(C(=O)C(C(=O)C(=O)Nc2ccc(Cl)c(Cl)c2)c2ccc(OC)cc2)cc1` (centres undefined), for which the GI50 in experiment [12] is > 100 µM (inactive); in experiment [2], > 100 µM (inactive); in experiment [3], > 100 µM (inactive); in experiment [4], 76.9 µM (inactive); in experiment [13], 57.5 µM (inactive); in [5], > 100 µM (inactive). Moreover, the GI50 is > 100 µM (inactive) in experiment [6]; > 100 µM (inactive) in experiment [8]; 78.5 µM (inactive) in experiment [14]; > 100 µM (inactive) in [9]; > 100 µM (inactive) in experiment [10]; > 100 µM (inactive) in experiment [11].

Take `Clc1cc(Cl)cc(/C=N/C23CC4CC(CC(C4)C2)C3)c1`: the GI50 in [12], in [1], in experiment [2], in [15], in [3] and in [16] was > 10 µM (inactive) throughout. Moreover, the GI50 in [13], in [17], in [18], in [5], in experiment [6] and in experiment [19] was > 10 µM (inactive) each time. Further, the GI50 in experiment [20], in experiment [7], in experiment [8], in experiment [14], in experiment [9] and in experiment [10] was > 10 µM (inactive) throughout. Moreover, the GI50 in experiment [11] was > 10 µM (inactive).

Consider `Cc1cc(NS(=O)(=O)c2ccc(NC(=O)c3ccc(Cl)c4c(Nc5ccc(S(=O)(=O)N=C(N)N)cc5)c5ccccc5nc34)cc2)no1`, for which the GI50 in experiment [12] was > 100 µM (inactive); in experiment [1], 27.6 µM (inactive); in experiment [3] it was 22.3 µM (inactive); in [4], 62.4 µM (inactive); in experiment [13] it was 29.7 µM (inactive); in experiment [5] it was 95.1 µM (inactive). The GI50 in experiment [6] is 39 µM (inactive); in experiment [9] it was 36 µM (inactive); in experiment [11] it was > 100 µM (inactive).
